According to patent publication US20240058413A1, “GRAPE SEED EXTRACT PREPARATION PROCESS AND EXTRACTS THUS OBTAINED” (Distillerie Bonollo Umberto - S.P.A. Con Sigla "U.B. S.P.A.", priority 2020, published 2024):

Columns and labels:
[1] = DPPH test (antioxidant power); conditions: decrease of DPPH radical peak at 517 nm, spectrophotometry
Procedure: DPPH Test The DPPH test allows determining the antioxidant power by reacting the sample to be analyzed with a solution of DPPH [2,2-diphenyl-1-picrylhydrazyl, PM 394.33, […]] and analyzing the decrease in the peak at 517 of the DPPH^• radical at UV. Antioxidant compounds which are capable of transferring a hydrogen atom to the radical cause a loss of absorbance of the solution. The decrease of the DPPH^• radical peak at 517 nm is then analyzed by spectrophotometry after a predetermined incubation time. This decrease (discoloration) is proportional to the antioxidant load present in the sample. The results can also be expressed as IC50, i.e., the concentration of antioxidant compound which causes an initial 50% decrease in DPPH^•.

[2] = ORAC test (Oxygen Radical Absorbance Capacity); conditions: fluorescence decay under peroxyl radical flow; Trolox as reference standard
From the text: ORAC Test The ORAC method (Oxygen Radical Absorbance Capacity) is one of the most common methods for determining radical trapping capacity against peroxyl radicals. The principle of the test is based on the measurement of the decrease in the fluorescence intensity of a fluorescent target molecule (for example fluorescein), under a constant flow of peroxyl radicals, generated by the thermal decomposition of an azo compound. The results are expressed as equivalent Trolox® micromoles, using this compound as the reference standard.

- DPPH IC50 [1]: 7.196 ± 0.852 µg/mL
SMILES: O=C1O[C@H]([C@@H](O)CO)C(O)=C1O [Ascorbic acid]
- ORAC [2]: 2900 ± 310 μmol Trolox ® equivalent/g of sample
